These results are taken from paper PMC5116089, “Sulfheme formation during homocysteine S-oxygenation by catalase in cancers and neurodegenerative diseases” (Nature Communications, 2016).

The test concerns the target T1, Bovine liver catalase (Bos taurus, UniProt P00432).
T1 construct: Bovine liver catalase was also purchased from Sigma-Aldrich; purchased Sigma-Aldrich; host or cells: bovine liver
T1 sequence (P00432 2-527 limits assumed): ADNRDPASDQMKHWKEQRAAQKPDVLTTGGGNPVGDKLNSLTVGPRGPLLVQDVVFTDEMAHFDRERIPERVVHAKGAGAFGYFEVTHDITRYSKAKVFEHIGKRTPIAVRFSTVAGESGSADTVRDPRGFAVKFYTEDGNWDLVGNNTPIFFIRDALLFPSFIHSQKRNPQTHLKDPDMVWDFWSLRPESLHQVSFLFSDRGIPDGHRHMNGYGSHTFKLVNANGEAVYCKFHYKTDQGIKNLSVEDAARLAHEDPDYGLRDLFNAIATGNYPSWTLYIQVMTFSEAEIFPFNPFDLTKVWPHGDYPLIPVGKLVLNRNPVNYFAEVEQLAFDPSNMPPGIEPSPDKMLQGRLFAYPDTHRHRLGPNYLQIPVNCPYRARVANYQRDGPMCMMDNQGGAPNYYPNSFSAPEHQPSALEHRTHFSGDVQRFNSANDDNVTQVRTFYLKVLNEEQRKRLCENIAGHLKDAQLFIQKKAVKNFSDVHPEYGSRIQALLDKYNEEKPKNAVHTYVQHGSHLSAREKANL
In words: Catalase activity (H2O2 disappearance at 240 nm) as a function of thiol concentration. The test is classed as biochemical. Conditions: read-out: relative IC50 (CAT activity). As for the experimental part:
CAT activity was measured on an Uvikon 941 spectrophotometer equipped with a temperature controlled water bath (±1 °C) by following the disappearance of H2O2 at 240 nm over 30–120 s at 25 °C. Catalase activity was calculated based on the rate of decomposition of hydrogen peroxide, which is proportional to the reduction of the absorbance at 240 nm. Experiments were carried out in a 3 ml quartz cuvette containing 11.7 mM H2O2 in 50 mM KPi, pH 7.4±1 mM DTPA and the reaction was initiated by adding 0.3–0.6 pmoles of CAT. The effect of biological thiols on the activity of CAT under physiological conditions was determined from a solution of CAT (30–60 nM) preincubated at 25 °C for at least 120 min as a function thiol concentration (0–40 mM for HCys and Cys, 0–100 mM for GSH) in 50 mM KPi, pH 7.4, 1 mM DTPA. Control experiments (biological thiols alone) were also performed in parallel. In each case, 10 μl of the reaction mixture (biological thiols±CAT) was added to the cuvette containing the H2O2 solution to initiate the reaction. Similarly, the effect of biological thiols on the activity of CAT under pathological conditions was determined from a solution of CAT (30–60 nM) containing a 2.124±0.386 molar excess of iron that was preincubated with various concentrations of thiols (0–1 mM) for at least 120 min at 25 °C in 50 mM KP at pH 7.4. The relative half inhibitory concentration (IC50) values were obtained by plotting the relative activity of CAT (A, in per cent) as a function of the concentration of thiol-compounds (RSH) and by fitting the data with the following four parameter logistic equation: A=Amin+(Amax−Amin)/(1+([RSH]/IC50)^n), where Amax is the maximal activity of CAT (constrained at 100%), Amin is the minimum activity achieved at saturating concentration of RSH and n is the Hillslope that characterizes the slope of the curve at its midpoint. The inactivation rate (kinact, min^−1) was extracted from the time course of the inactivation of CAT bioactivity using a fixed concentration of HCys. Accordingly, a solution of CAT (3.5–5 μM) was incubated with 2 mM L-HCys in 50 mM KPi, pH 7.4, 1 mM DTPA. Aliquots (10 μl) were taken at intervals (0–480 min), diluted 1:50 in 50 mM KPi, pH 7.4, 1 mM DTPA and assayed for CAT activity as described above. Similar experiments were performed in the presence of DMPO, 5,5-dimethyl-1,3-cyclohexanedione (dimedone) or SOD at a final concentration of 100 mM, 4 mM or 40 U, respectively. kinact values were obtained by plotting the relative activity of CAT (A, in per cent) as a function of the incubation time and the data were fitted with an exponential decay function: A=A0+ΔA × e^−kinact × t, with A0 and ΔA (A0+ΔA=100%) the residual activity and the percentage of CAT inhibition when t→∞, respectively. The effect of NaSH on the consumption of H2O2 in cell lysates was determined from a solution of cell lysates (0.5–3 mg ml^−1) incubated on ice with various concentrations of NaSH (0–200 μM). The disappearance of H2O2 was then followed at 240 nm for 2–5 min at 25 °C after the addition of 20–25 μl of the reaction mixture in a 3 ml cuvette containing 11.7 mM H2O2 in 50 mM KPi, pH 7.4. The relative half inhibitory concentration (IC50) values for NaSH were obtained by plotting the relative rate of disappearance of H2O2 (ΔA240 nm/min) as a function of the concentration of NaSH and by fitting the data with an hyperbolic decay equation. All the experiments were performed at least in triplicate.

Where [1] appears, read: +1 mM DTPA (physiological conditions), 50 mM phosphate buffer pH 7.4, 25 °C, n=3±s.d.
The mark [2] stands for this setting: iron 55–145 nM, −DTPA (pathological conditions), 50 mM phosphate buffer pH 7.4, 25 °C, n=3±s.d.

Like-named read-outs stand apart in the source and are kept apart here. Where only a bound is given, the exact number is not on record here.

Usually IC50 stands for the concentration at which inhibition is half-maximal. For the compound `NC(CCS)C(=O)O` (stereo not shown) [HCys, homocysteine], the IC50 under setting [1] was found to be 1440 ± 370 µM and the IC50 under setting [2] worked out at 37 ± 3 µM.
On to `N[C@@H](CS)C(=O)O` [Cys, cysteine], for which the IC50 is 590 ± 70 µM under setting [1]; 69 ± 27 µM (iron 55–145 nM, + 0.2 mM DTPA); 594 ± 67 µM (iron 55–145 nM, + 1 mM DTPA); > 700 µM (iron 55–145 nM, + DMPO); 66 ± 16 µM (iron 55–145 nM, + SOD); 3.5 ± 0.3 µM under setting [2].
For `N[C@@H](CCC(=O)N[C@@H](CS)C(=O)NCC(=O)O)C(=O)O` [GSH, glutathione], the IC50 runs as follows: under setting [1], 21200 ± 8500 µM; under setting [2], 55 ± 14 µM.
